PubChem BioAssay (NCI)
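1) Cells in 96-well plates. 2) Compound, 48 h, 5 concentrations. 3) Linear interpolation between surrounding doses. 4) Unreached endpoint = highest concentration. The concentration for full growth arrest is given as TGI.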

What was measured:
Assay in all cases: NCI-60 cell line screen, 48 h
786-0 renal = system: 786-0 renal
HCT-116 colon = system: HCT-116 colon
HOP-62 NSCLC = system: HOP-62 NSCLC
M14 melanoma = system: M14 melanoma
NCI-H23 lung = system: NCI-H23 lung
NCI-H522 lung = system: NCI-H522 lung
SF-539 CNS = system: SF-539 CNS
UACC-62 melanoma = system: UACC-62 melanoma
RXF 393 renal = system: RXF 393 renal
NCI/ADR-RES ovarian = system: NCI/ADR-RES ovarian
MDA-N = system: MDA-N

Compound	TGI (786-0 renal) [µM]	TGI (HCT-116 colon) [µM]	TGI (HOP-62 NSCLC) [µM]	TGI (M14 melanoma) [µM]	TGI (NCI-H23 lung) [µM]	TGI (NCI-H522 lung) [µM]	TGI (SF-539 CNS) [µM]	TGI (UACC-62 melanoma) [µM]	TGI (RXF 393 renal) [µM]	TGI (NCI/ADR-RES ovarian) [µM]	TGI (MDA-N) [µM]
COc1ccc(C2C=C(c3ccc(C)cc3)N(c3ccc(OC)cc3[N+](=O)[O-])C3C(=O)OC(=O)C23)c(OC)c1 (centres undefined)	> 100	> 100	> 100	> 100	> 100	53.7	53.2	> 100			
CN(C)CCCNC(=O)N/N=C/c1ccccc1		> 100				> 100	> 100	> 100	> 100		
NC(=O)C1CCN(Cc2c(Cl)c(Cl)c(CN3CCC(C(N)=O)CC3)c(Cl)c2Cl)CC1	> 100	> 100	39.7	> 100	> 100	> 100	70.7	> 100	> 100	> 100	
O=c1c2ccc(Cl)cc2oc2c(CNc3ccc(S(=O)(=O)Nc4ncccn4)cc3)cccc12	> 100	> 100	> 100	> 100	> 100	> 100	> 100	> 100		> 100	> 100
CCOC(=O)c1c(SCc2cc(=O)[nH]c(=O)[nH]2)n(-c2ccccc2)c(=S)n(-c2ccccc2)c1=O	> 100	> 100	> 100	> 100			> 100	> 100	> 100	> 100	> 100
CCOC(=O)N1CCN(c2c(N)nc(C)[nH]c2=O)CC1	> 100	> 100	> 100	> 100	> 100	> 100	> 100			> 100	> 100
Cc1cc(S(=O)(=O)N=C2Nc3cccc4cccc(c34)N2)c(S)cc1Cl	> 100	83.8		> 100		> 100	> 100	> 100	> 100	> 100	> 100
O=[N+]([O-])c1ccc(-c2csc(=[N+]3CCCCC3)s2)cc1	> 100	> 100	11.6	> 100	22.8	18.3	> 100	> 100	> 100		
CNC(=O)CN(CC(=O)O)C(=O)NC	> 100		> 100	> 100	> 100	> 100	> 100	> 100	> 100		
CC(=O)Oc1ccc2c(-c3ccccc3)c(Oc3ccc(Cl)cc3)c(=O)oc2c1	30	28	34.9	37	44.6	9.51	31.1		33.2		
CN1C2=Nc3n(c4ccccc4[n+]3C)CN2c2ccccc21	> 100	> 100	> 100	> 100	> 100	65.4	> 100	42.6		> 100	50.5
CC(=O)/C(=N\Nc1ccc(Cl)cc1)C(C)=Nc1ccc(C)cc1	> 100	> 100		58	> 100	66.7		> 100	95.8	> 100	> 100
CO[P@@]1(=O)O[C@@H](c2ccccc2)[C@H](O)[C@]1(O)c1ccccc1	> 100	> 100		> 100	> 100	> 100	> 100	> 100	> 100	> 100	> 100
CCCCNC(=O)Cn1c2ccc(Br)cc2c2nc3ccccc3nc21	> 100	> 100	> 100	> 100	> 100			> 100	> 100	> 100	> 100
C/C(=C\CSCC(N)C(=O)O)CC/C=C(\C)CNc1ccccc1 (centres undefined)	> 100	> 100	> 100	> 100	> 100	> 100	> 100	> 100	> 100	> 100	
O=C1Nc2cc(F)ccc2C1=O	> 100		> 100	> 100	> 100	> 100	> 100	> 100	> 100		
COc1ccc(C2c3cc4c(cc3OC(Nc3ccccc3)C2C)OCO4)cc1 (centres undefined)		> 100	> 100	> 100	> 100	> 100	> 100	> 100	> 100		> 100
NCCCCNCCCN1CCOC1=O	> 100	> 100	> 100	> 100	> 100	> 100	> 100	> 100		> 100	> 100
CN(C)CCNCCCNc1c2ccccc2nc2cccc([N+](=O)[O-])c12	0.106	0.0594	0.154	0.0654	< 0.0186	< 0.0133	0.263	0.236			
Cc1cc(-c2cc(C(C)(C)C)c(O)c(C(C)(C)C)c2)c(C)cc1-c1cc(C(C)(C)C)c(O)c(C(C)(C)C)c1	> 100	> 100	> 100	> 100	> 100	> 100	> 100	> 100		> 100	> 100
Nc1c(N2CCOCC2)c(=O)nc2[nH]/c(=C\c3ccccc3O)c(=O)n12	> 100	> 100		> 100	> 100	> 100	> 100		> 100	> 100	> 100
C=CN(C=C)C(=O)Cn1cc(-c2ccccc2)nn1	> 100	> 100	> 100	> 100	> 100	> 100	> 100			> 100	
CC(C)(C)/C(O)=C\c1nc2cc(F)c(F)cc2[nH]c1=O	> 100	> 100	> 100	> 100	> 100		> 100	> 100	> 100	> 100	
